Test results taken from ChEMBL document CHEMBL5390223, “Strategies for the Discovery of Oxazolidinone Antibacterial Agents: Development and Future Perspectives” (J Med Chem, 2023).
In brackets after ≈: the same amount, converted by molar mass.

How the values were obtained:
[1] = test system: Mycobacterium tuberculosis variant bovis; assay: Antimycobacterial activity against Mycobacterium tuberculosis H37Rv assessed as reduction in bacterial cell growth; assay type: functional
[2] = test system: Mycobacterium tuberculosis variant bovis; assay: Antimycobacterial activity against Mycobacterium tuberculosis H37Rv assessed as reduction in bacterial growth by MABA assay; assay type: functional

SMILES | MIC [1] | MIC [2]
CC(=O)NC[C@H]1CN(c2ccc(N3CCSCC3)c(F)c2)C(=O)O1 [SUTEZOLID] | 0.125 µg/mL (≈ 0.354 µM) | 
CC(=O)NC[C@H]1CN(c2ccc(N3CCOCC3)c(F)c2)C(=O)O1 [LINEZOLID] |  | 0.5 µg/mL (≈ 1.48 µM)
